Source: patent publication US20070167432A1, “Tricyclic triazolobenzapine derivative produced as novel crystalline substance” (MEIJI SEILA KAISHA, LTD, priority 2003, published 2007)

How the values were obtained:
[1] = Absorbability test: oral administration to cynomolgus monkeys, Compound B in blood plasma as indicator; assay type: in vivo
Description: The α-type crystalline material obtained in Comparative Example 1 or the β-type crystalline material obtained in Example 1 was suspended in a 1 wt. % aqueous solution of methyl cellulose. Each suspension was orally administered to a group of cynomolgus monkeys that had not been fed one overnight (5 mg/kg, n=5). The two samples were compared, in terms of the change of Compound B concentration of blood plasma and the area under the medicine concentration in blood plasma-time curve (AUC), to evaluate the difference in absorbability between the samples. The Compound B concentration of blood plasma derived from the blood sample was determined in the following manner.
By centrifugally separating the blood (1 mL) taken from a saphenous vein (4° C., 3000 rpm, 10 minutes) in the presence of heparin, blood plasma was obtained. To this blood plasma (100 μL), a methanol solution containing an internal standard substance (sodium 7-methyl-4(5H),10-dioxo-2H-1,2,3-triazolo [4,5-c][1]benzazepine) (100 ng/mL, 100 μL) and methanol (400 μL) were added, and the mixture was stirred and was then subjected to centrifugal separation (4° C., 10000 rpm, 5 minutes). Methanol (300 μL) was added again to the supernatant, and the mixture was centrifugally separated under the same conditions as the previous manner. […]
Fluorescence detection wavelengths: Ex 270 nm, Em 466 nm […]

[2] = Solubility test in water (37° C.), Compound A concentration of filtrate by HPLC; assay type: physicochemical
Description: By using, as test samples, the β-type crystalline material obtained in Example 1 and the α-type crystalline material obtained in Comparative Example 1, a water (37° C.) solubility test was carried out. The test sample (about 10 mg) was added to 100 mL of water (37° C.), and the mixture was stirred at 1000 rpm. The mixture was sampled at some points of time, and each sample taken out was filtered through a membrane filter (Millex LG-13 manufactured by Millipore Corp, Japan). The compound A concentration of each filtrate was determined with high-performance liquid chromatography (HPLC). The measurement conditions were as follows:
HPLC: LC-10vp series (manufactured by Shimadzu Corp. Japan)
System controller: CBM-10A
Measurement wavelength: 246 nm
Column: Mightysil RP-18 GP 4.6×250 mm (manufactured by Kanto Chemical Co., Inc., Japan)
Column temperature: Fixed temperature at around 40° C.
Mobile phase: Mixture of methanol and water (55:45)
Amount of influent: 10 μL
Internal standard solution: Acetonitrile solution of propyl paraoxybenzoate (conc.200 μg/mL)

Row | SMILES | absorption into organisms ([1]; background statement, administered as it is) | solubility in solvents such as water ([2]; background statement from applicant's experiments, solvents such as water) | Compound B concentration of blood plasma compared with the α-type-crystalline-material-administered group ([1]; cynomolgus monkeys, fasted overnight, oral 5 mg/kg, suspension in 1 wt. % aqueous methyl cellulose, n=5, FIG. 6) | water solubility compared with the α-type crystalline material ([2]; water 37° C.)
1 | COc1cc2[nH]c(=O)c3nn(C(OC(=O)OC(C)C)C(C)C)nc3c(=O)c2cc1OC (stereo not drawn) [α-type crystalline material, 2-(1-Isopropoxycarbonyloxy-2-methylpropyl)-7,8-dimethoxy-4(5H),10-dioxo-2H-1,2,3-triazolo[4,5-c][1]benzazepine] | cannot be easily absorbed | sparingly soluble |  | 
2 | COc1cc2[nH]c(=O)c3nn(C(OC(=O)OC(C)C)C(C)C)nc3c(=O)c2cc1OC (stereo not drawn) [β-type crystalline material, 2-(1-Isopropoxycarbonyloxy-2-methylpropyl)-7,8-dimethoxy-4(5H),10-dioxo-2H-1,2,3-triazolo[4,5-c][1]benzazepine] |  |  | higher values | higher
